In data set [1] the target is T1, SRPK1 (Homo sapiens (Human), UniProt Q96SB4). As to the kind of experiment: In vitro kinase assay (Kinase-Glo), SRPK1 inhibition. To be noted: Table 2, SRPK1 inhibition assay. Type of data set: biochemical. As to the method: Candidate compounds were serially diluted from 10 μM-0.5 nM and added to the reaction mixture, wells with omitted SRPK1 kinase and omitted compounds were also added as controls. All wells contained one percent DMSO. One micromolar ATP was added, wells minus ATP were used as background controls. The plate was then incubated at 30° C. for 10 minutes. An equal volume of Kinase-Glo (Promega, 25 μl) was added to each well and the plate read for luminescence using an Fluostar Optima (BMG Labtech).
A general note: Kinase-Glo reads ATP consumption through a luciferase reaction.

The test system of data set [2] is VEGF165b. To be noted: cited from earlier work.
The next data set in a line: in vitro. To be noted: human.
Data set [3] addresses T1, SRPK1. To be noted: read-out: IC50 of SRPK1 inhibition; previously shown; cited from earlier work.
The subject of data set [4] is choroidal neovascularisation. To be noted: mouse models of CNV, previously shown; cited from earlier work.
The target in data set [5] is human ether a go-go related gene (hERG) K+ channel (Homo sapiens (Human), UniProt Q12809). To be noted: previously described (Gammons et al., 2013); cited from earlier work.
Data set [6] is classed as cell-based. An excerpt:
To test whether compounds of Formula (I) are safe to administer to patients we began a basic safety test of these compounds in vitro.

Data set [7] can be described thus: Scleral permeability, modified Ussing chamber, rabbit eye tissue. To be noted: rabbit sclera; for detection in the vitreous: 24 hours.
Experimental: (§1) Scleral permeability was measured using a modified Ussing chamber assembly in isotonic assay buffer (pH 7.4). Rabbit or porcine excised eye tissues were mounted in the chambers such that the episcleral side faced the donor chamber and the retinal side faced the receiver chamber. The chambers were filled with equal volumes of assay buffer, with (donor side) or without (receiver side) 1 μg/ml compound. After 4 or 24 hours tissue was removed from the chamber and the receiver side (“vitreous”) sampled. Tissue was dissected into sclera, choroid/RPE, and retina and homogenised.
(§2) After 0, 4 or 24 hours, the fluid from the bottom chamber (vitreous) and the retinal tissue was isolated and compounds purified by acetonitrile extraction and HPLC.
Data set [8] in a line: Scleral permeability, modified Ussing chamber, porcine eye tissue. Type of data set: in vitro ADME. To be noted: porcine eyes.
Experimental: as §1, §2
A short description of data set [9]: Solubility in water of salt forms. To be noted: salt forms versus free compounds.
Data set [10] concerns VEGF165b. As to the kind of experiment: VEGF165b expression in RPE cells. Type of data set: cell-based.
The test system of data set [11] is SRSF1 localisation. As to the kind of experiment: SRSF1 nuclear localisation by immunofluorescence in PC3 cells. It counts as cell-based.
Data set [12] relates to SRSF1 localisation. Kind of data set: SRSF1 nuclear localisation by immunofluorescence in MDA-MB231 cells. It counts as cell-based.
For data set [13] the following is noted: monthly 0.5 mg, at one year; cited from earlier work.

“Also recorded” adds a separate entry of the source. Read-outs that look alike come from different tables or passages of the source.

Sequence of human ether a go-go related gene (hERG) K+ channel (Q12809 whole entry): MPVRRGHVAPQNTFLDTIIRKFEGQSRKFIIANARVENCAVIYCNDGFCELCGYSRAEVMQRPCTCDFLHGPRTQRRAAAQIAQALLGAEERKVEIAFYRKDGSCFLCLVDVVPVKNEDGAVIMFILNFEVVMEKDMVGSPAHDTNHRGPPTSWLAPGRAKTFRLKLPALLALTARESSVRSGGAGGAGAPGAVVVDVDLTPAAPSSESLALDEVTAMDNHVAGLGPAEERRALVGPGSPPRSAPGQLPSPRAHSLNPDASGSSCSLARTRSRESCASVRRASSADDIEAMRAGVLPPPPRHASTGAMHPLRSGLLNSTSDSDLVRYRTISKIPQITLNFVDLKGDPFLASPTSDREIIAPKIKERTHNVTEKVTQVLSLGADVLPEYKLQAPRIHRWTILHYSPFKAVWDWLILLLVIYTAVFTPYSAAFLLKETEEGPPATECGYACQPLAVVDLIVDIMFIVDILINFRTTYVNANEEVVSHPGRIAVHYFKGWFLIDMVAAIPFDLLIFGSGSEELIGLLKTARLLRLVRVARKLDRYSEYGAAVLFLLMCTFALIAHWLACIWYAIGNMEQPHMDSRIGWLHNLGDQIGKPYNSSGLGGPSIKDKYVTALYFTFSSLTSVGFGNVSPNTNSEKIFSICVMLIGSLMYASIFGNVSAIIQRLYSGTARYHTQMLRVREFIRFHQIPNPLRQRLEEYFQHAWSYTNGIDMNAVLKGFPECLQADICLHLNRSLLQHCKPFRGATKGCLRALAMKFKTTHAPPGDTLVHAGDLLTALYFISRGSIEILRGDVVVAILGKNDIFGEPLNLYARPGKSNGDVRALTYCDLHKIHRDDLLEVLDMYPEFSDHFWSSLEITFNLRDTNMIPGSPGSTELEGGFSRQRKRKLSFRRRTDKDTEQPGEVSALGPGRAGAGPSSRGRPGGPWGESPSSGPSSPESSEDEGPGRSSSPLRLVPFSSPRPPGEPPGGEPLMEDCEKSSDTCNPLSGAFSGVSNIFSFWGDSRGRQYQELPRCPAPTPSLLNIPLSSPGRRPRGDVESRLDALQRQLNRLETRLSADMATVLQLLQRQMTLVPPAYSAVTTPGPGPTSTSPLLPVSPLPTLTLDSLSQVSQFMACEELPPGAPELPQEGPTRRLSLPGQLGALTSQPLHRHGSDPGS
T1 sequence (Q96SB4 whole entry): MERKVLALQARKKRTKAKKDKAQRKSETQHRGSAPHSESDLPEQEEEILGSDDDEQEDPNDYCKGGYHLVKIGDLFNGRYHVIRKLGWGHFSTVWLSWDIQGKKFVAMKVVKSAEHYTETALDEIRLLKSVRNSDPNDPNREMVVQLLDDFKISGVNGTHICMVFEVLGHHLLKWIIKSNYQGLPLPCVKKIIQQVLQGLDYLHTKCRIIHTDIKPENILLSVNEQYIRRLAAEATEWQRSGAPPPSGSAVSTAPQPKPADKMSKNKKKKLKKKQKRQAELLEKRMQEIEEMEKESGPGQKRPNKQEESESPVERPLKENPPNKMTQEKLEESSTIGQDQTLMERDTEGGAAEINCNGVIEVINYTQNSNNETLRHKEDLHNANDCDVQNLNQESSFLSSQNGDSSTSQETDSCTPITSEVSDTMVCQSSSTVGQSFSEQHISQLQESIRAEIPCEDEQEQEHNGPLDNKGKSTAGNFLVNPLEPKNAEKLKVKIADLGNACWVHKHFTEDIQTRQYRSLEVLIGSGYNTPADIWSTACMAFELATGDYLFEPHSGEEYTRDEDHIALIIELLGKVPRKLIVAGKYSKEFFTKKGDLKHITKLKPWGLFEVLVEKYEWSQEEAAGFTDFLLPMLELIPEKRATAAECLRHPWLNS

Regarding `CSc1nccc(CN2CCN(c3ccc(C(F)(F)F)cc3NC(=O)c3ccc(C)o3)CC2)n1` [Compound 31], the midpoint of inhibition against SRPK1 [1], the IC50, lay at 1.9 nM.
In the case of `Cc1cnc(C(=O)Nc2cc(C(F)(F)F)ccc2N2CCN(Cc3ccccn3)CC2)o1` [Compound 27], half-maximal inhibition on SRPK1 [1] (IC50) was put at 10000 nM.
For the molecule “bevicizumab: an anti-VEGF antibody from which Lucentis was derived”, in the data set on VEGF165b [2], the “binding of VEGF165b versus VEGF165” value was “equal potency”.
In the case of `O=C(Nc1cc(C(F)(F)F)ccc1N1CCN(Cc2ccccc2)CC1)c1ccco1` [Compound 19], the IC50 – broadly, the concentration at which inhibition is half-maximal – against SRPK1 [1] was found to be 14.1 nM.
Molecule `Cc1ccc(C(=O)Nc2cc(C(F)(F)F)ccc2N2CCN(Cc3ccccc3)CC2)o1` [Compound 20] displayed an IC50 at SRPK1 [1] of 4.4 nM. The half-life (commonly the time in which the quantity being followed falls by half) in “in vitro” (liver microsomes) turned out to be 0.283 h.
Consider `O=C(Nc1cc(C(F)(F)F)ccc1N1CCCCC1)c1ccncc1` [SRPIN340], for which the IC50 on SRPK1 [3] was 1000 nM. Moreover, the “eye drop concentration of maximum anti-angiogenic effect” value in data set [4] is 10 µg/mL. For the same molecule, in data set [5], the hERG inhibition entry is recorded as “do not inhibit hERG”.
For the molecule `CN(C)CCN1CCN(c2ccc(C(F)(F)F)cc2NC(=O)c2ccc(-c3ccncc3)o2)CC1` [SPHINX7], in [6], the “doses at which toxic” value is reported as “greater than 10 μM”.
On to `Cc1ccc(Nc2nccc(N(C)c3ccc4c(C)n(C)nc4c3)n2)cc1S(N)(=O)=O` [pazopanib], for which, in data set [7] (4 hrs), the “detection in retina and vitreous” value is listed as “could not”. Further, the “detection in the vitreous” value in [7] was “detected”. In data set [8], the “accumulation in sclera and RPE/Choroid layer” value is “accumulated in the sclera and in the RPE/Choroid layer”; the “penetration into retina and vitreous” value is recorded as “did not penetrate the retina”.
Consider `CN1CCN(c2ccc(C(F)(F)F)cc2NC(=O)c2cccs2)CC1` [Compound 40], for which the IC50 against SRPK1 [1] was 4690 nM.
For `Cc1nnc(C(=O)Nc2cc(C(F)(F)F)ccc2N2CCN(Cc3ccccn3)CC2)o1` [Compound 28], the IC50 at SRPK1 [1] is 10000 nM.
Regarding `O=C(Nc1cc(C(F)(F)F)ccc1N1CCN(Cc2ccncc2)CC1)c1ccc(-c2ccncc2)o1` [Compound 14], in data set [9], the solubility in water entry was “more freely soluble in water”.
At SRPK1 [1], `CN1CCN(c2ccc(C(F)(F)F)cc2NC(=O)c2nc(-c3ccccc3)c[nH]2)CC1` [Compound 41] showed an IC50 of 493 nM.
As to `O=C(Nc1cc(C(F)(F)F)ccc1N1CCN(Cc2cccnc2)CC1)c1ccc(-c2ccncc2)o1` [Compound 13], the solubility in water result in data set [9] is on record as “more freely soluble in water”.
In the case of `O=C(Nc1cc(C(F)(F)F)ccc1N1CCN(Cc2ccccn2)CC1)c1ccc(-c2ccncc2)o1` [Compound 12], in [7], the “detection in the vitreous” value is on record as “more SPHINX31 than pazopanib”. For the same molecule, the solubility in water result in data set [9] is reported as “more freely soluble in water”. Further, in the data set on VEGF165b [10], the “expression of anti-angiogenic VEGF165b” value is listed as “dose dependent increase in VEGF165b”. Moreover, the SRSF1 cellular localisation result in the data set with SRSF1 localisation [11] and in the data set with SRSF1 localisation [12] was “inhibited cellular localisation” each time. The same molecule gave a half-life in “in vitro” (microsomes) of 1.02 h.
The molecule `O=C(Nc1cc(C(F)(F)F)ccc1N1CCN(Cc2cnccn2)CC1)c1ccco1` [Compound 43] had an IC50 against SRPK1 [1] of 183 nM.
`O=C(Nc1cc(C(F)(F)F)ccc1N1CCN(Cc2ccccc2)CC1)c1ccc(-c2cccnc2)o1` [Compound 21] gave an IC50 against SRPK1 [1] of 4.6 nM. In “in vitro” (liver microsomes), this molecule displayed a half-life of 1.04 h.
Take `O=C(Nc1cc(C(F)(F)F)ccc1N1CCN(Cc2ccccn2)CC1)c1nc(-c2ccccc2)no1` [Compound 34]: the IC50 on SRPK1 [1] came to 5310 nM.
In the case of `Cc1ccc(C(=O)Nc2cc(C(F)(F)F)ccc2N2CCOCC2)o1` [SPHINX], the “eye drop concentration of maximum anti-angiogenic effect” value in [4] is 10 µg/mL. For the same molecule, the hERG inhibition result in [5] is listed as “did not inhibit hERG; also recorded: do not inhibit hERG”.

B1: Lucentis: a novel humanized anti-VEGF antibody fragment (antibody, chains of the INN, looked up, V domains shown)
VH: EVQLVESGGGLVQPGGSLRLSCAASGYDFTHYGMNWVRQAPGKGLEWVGWINTYTGEPTYAADFKRRFTFSLDTSKSTAYLQMNSLRAEDTAVYYCAKYPYYYGTSHWYFDVWGQGTLVTVSS
VL: DIQLTQSPSSLSASVGDRVTITCSASQDISNYLNWYQQKPGKAPKVLIYFTSSLHSGVPSRFSGSGSGTDFTLTISSLQPEDFATYYCQQYSTVPWTFGQGTKVEIK
modifications: Fab
notes: a novel humanized anti-VEGF antibody fragment
Regarding B1, in data set [13], the “patients who maintained visual acuity (loss of <15 letters)” value was “approximately 95%” and the “patients with improved vision (gain of ≧15 letters)” value is given as at most 40%.
